Results from patent publication US5856336A, “Quinoline type mevalonolactones” (Nissan Chemical Industries Ltd., priority 1987, dated 1999).
Counter-ions that a name gives are not always drawn.

Tested on: cholesterol biosynthesis from acetate (liver microsome and sup fraction)
Experiment: Test A: Inhibition of cholesterol biosynthesis from acetate in vitro
Assay type: biochemical, male Wistar rat
Conditions: for Relative activities by Test A: relative to CS-514 being evaluated to be 1
Method: Test A: Inhibition of cholesterol biosynthesis from acetate in vitro
Enzyme solution was prepared from liver of male Wistar rat billialy cannulated and discharged bile for over 24 hours. Liver was cut out at mid-dark and microsome and supernatant fraction which was precipitable with 40-80% of saturation of ammonium sulfate (sup fraction) were prepared from liver homogenate according to the modified method of Knauss et. al.; Kuroda, M., et. al., Biochim. Biophys. Acta, 489, 119 (1977). For assay of cholesterol biosynthesis, microsome (0.1 mg protein) and sup fraction (1.0 mg protein) were incubated for 2 hours at 37° C. in 200 μl of the reaction mixture containing ATP; 1 mM, Glutathione; 6 mM, Glucose-1-phosphate; 10 mM, NAD; 0.25 mM, NADP; 0.25 mM, CoA; 0.04 mM and 0.2 mM [2-^14 C]sodium acetate (0.2 μCi) with 4 μl of test compound solution dissolved in water or dimethyl sulfoxide. To stop reaction and saponify, 1 ml of 15% EtOH-KOH was added to the reactions and heated at 75° C. for 1 hour. […] Inhibitory activity of compounds was indicated with IC50.

| Structure (SMILES) | IC50 (Test A, rat liver microsome + sup fraction, [2-14C]sodium acetate, 2 hours at 37° C., read-out: I50 (inhibitory activities by Test A)) [µM] | Relative activities by Test A |
| --- | --- | --- |
| CC(C)c1nc2ccccc2c(-c2ccc(F)cc2)c1/C=C/C(O)CC(O)CC(=O)O (stereo not drawn) [I-51, Sodium salt of (E)-3,5-dihydroxy-7-[4'-(4"-fluorophenyl)-2'-(1"-methylethyl)-quinolin-3 '-yl]-hept-6-enoic acid] | 0.01 |  |
| CCOC(=O)CC(O)CC(O)/C=C/c1c(CC)nc2ccccc2c1-c1ccc(F)cc1 (stereo not drawn) [I-117] |  | 0.37 |
| CC(C)c1nc2c(Cl)cc(Cl)cc2c(-c2ccc(F)cc2)c1/C=C/C(O)CC(O)CC(=O)O (stereo not drawn) [I-522] |  | 0.76 |
